This note sets out measurements from ChEMBL document CHEMBL5131471, “Design, synthesis and mechanism studies of novel dual PARP1/BRD4 inhibitors against pancreatic cancer” (Eur J Med Chem, 2022).

Structures are written as SMILES. Calls of active or inactive are those of the source. The rule behind the calls is not given here.

Data set [1] deals with SW1990. Nature of the data set: Effect on E2F2 gene expression in human SW1990 cells at 1 uM in presence of Olaparib by Q-PCR analysis. Format: functional, cell-based.
The species named for data set [2] is Mus musculus. The note with it: dose 15.0 mg/kg, route ip, time 28.0 day.
Data set [3] relates to SW1990. Put plainly: Induction of cell cycle arrest in human SW1990 cells assessed as accumulation of cells at G0/G1 phase at 1 uM incubated for 4 days in presence of 3 uM Olaparib by propidium iodide staining based flow cytometry (reference value: 64.79%). Format: functional. The note with it: time 4 day. Background: In flow cytometry, cells or beads pass a laser one at a time.

Data set [4] is described as follows: Toxicity in nude mouse xenografted with human SW1990 cells assessed as kidney damage at 15 mg/kg, ip administered for 28 days in presence of 45 mg/kg Olaparib by H and E staining based fluorescence microscopic analysis. Format: organism-based. As to conditions: in vivo, 672 h, time 28 day. A general note: In xenograft studies the graft and the host belong to different species.

For data set [5], the system named is SW1990. Put plainly: Effect on CCND1 gene expression in human SW1990 cells at 4 uM by Q-PCR analysis. It is filed as functional, cell-based.
The test system of data set [6] is SW1990. Put plainly: Effect on Rad51 gene expression in human SW1990 cells at 4 uM by Q-PCR analysis. It is filed as functional, cell-based.
Data set [7] has as its system SW1990. Put plainly: Induction of cell cycle arrest in human SW1990 cells assessed as accumulation of cells at G2/M phase at 4 uM incubated for 4 days by propidium iodide staining based flow cytometry (reference value: 5.89%). It is filed as functional. As to conditions: time 4 day.
In data set [8] the test system is SW1990. Nature of the data set: Induction of cell cycle arrest in human SW1990 cells assessed as accumulation of cells at S phase at 4 uM incubated for 4 days by propidium iodide staining based flow cytometry (reference value: 29.32%). Format: functional. The note with it: time 4 day.
Data set [9] can be described thus: Toxicity in nude mouse xenografted with human SW1990 cells assessed as spleen damage at 15 mg/kg, ip administered for 28 days in presence of 45 mg/kg Olaparib by H and E staining based fluorescence microscopic analysis. Format: organism-based. The note with it: in vivo, 672 h, time 28 day.
For data set [10], the system named is SW1990. Nature of the data set: Effect on TOPBP1 gene expression in human SW1990 cells at 4 uM by Q-PCR analysis. It is filed as functional, cell-based.
For data set [11], the system named is SW1990. Nature of the data set: Effect on Rad51 gene expression in human SW1990 cells at 1 uM in presence of Olaparib by Q-PCR analysis. Format: functional, cell-based.
In data set [12] the test system is SW1990. Put plainly: Effect on FOXM1 gene expression in human SW1990 cells at 1 uM in presence of Olaparib by Q-PCR analysis. Format: functional, cell-based.
Data set [13] concerns SW1990. Nature of the data set: Induction of cell cycle arrest in human SW1990 cells assessed as accumulation of cells at S phase at 2 uM incubated for 4 days by propidium iodide staining based flow cytometry (reference value: 29.32%). It is filed as functional. The note with it: time 4 day.
Data set [14] in a line: Toxicity in nude mouse xenografted with human SW1990 cells assessed as kidney damage at 30 mg/kg, ip administered for 28 days by H and E staining based fluorescence microscopic analysis. The note with it: in vivo, 672 h, time 28 day. It is filed as organism-based.
Data set [15] has as its system SW1990. Put plainly: Effect on BRCA2 gene expression in human SW1990 cells at 1 to 2 uM by Q-PCR analysis. It is filed as functional, cell-based. The note with it: dose 1-2 µM.
In data set [16] the test system is Mus musculus. Put plainly: Inhibition of homologous recombinant repair in nude mouse xenografted with human SW1990 cells assessed as reversal of olaparib-induced c-Myc expression at 30 mg/kg, ip measured after 4 days by Western blot analysis. It is filed as functional, organism-based. The note with it: time 4.0 day.
The test system of data set [17] is Mus musculus. Nature of the data set: Inhibition of homologous recombinant repair in nude mouse xenografted with human SW1990 cells assessed as reversal of olaparib-induced FOXM1 expression at 30 mg/kg, ip measured after 4 days by Western blot analysis. The note with it: time 4.0 day. Format: functional, organism-based.
In data set [18] the test system is Mus musculus. Nature of the data set: Inhibition of CDC25B expression in nude mouse xenografted with human SW1990 cells at 30 mg/kg, ip measured after 4 days by Western blot analysis. Format: functional, organism-based. The note with it: time 4.0 day.
Data set [19] has as its system Mus musculus. Nature of the data set: Inhibition of homologous recombinant repair in nude mouse xenografted with human SW1990 cells assessed as reversal of olaparib-induced TOPBP1 expression at 30 mg/kg, ip measured after 4 days by Western blot analysis. It is filed as functional, organism-based. The note with it: time 4.0 day.
Data set [20] concerns MDA-MB-231. Put plainly: Antiproliferative activity against BRCA-proficient human MDA-MB-231 cells assessed as inhibition of cell growth measured after 7 days by MTT assay. It is filed as functional, cell-based. The note with it: MDA-MB-231, 168 h. For orientation: Formazan colour is commonly taken as a measure of viable cells.
The nature of data set [21]: Toxicity in nude mouse xenografted with human SW1990 cells assessed as spleen damage at 30 mg/kg, ip administered for 28 days by H and E staining based fluorescence microscopic analysis. Format: organism-based. The note with it: in vivo, 672 h, time 28 day.
A short description of data set [22]: Toxicity in nude mouse xenografted with human SW1990 cells assessed as heart damage at 30 mg/kg, ip administered for 28 days by H and E staining based fluorescence microscopic analysis. It is filed as organism-based. As to conditions: in vivo, 672 h, time 28 day.
The test system of data set [23] is SW1990. Nature of the data set: Effect on Rad51 gene expression in human SW1990 cells at 1 to 2 uM by Q-PCR analysis. It is filed as functional, cell-based. As to conditions: dose 1-2 µM.
Data set [24] relates to SW1990. Nature of the data set: Antiproliferative activity against human SW1990 cells assessed as inhibition of cell growth measured after 4 days by MTT assay. Format: functional, cell-based. The note with it: SW1990, 96 h.
Data set [25] concerns SW1990. Put plainly: Inhibition of CCND1 protein expression in human SW1990 cells at 1 to 2 uM measured after 4 days by Western blot analysis. As to conditions: dose 1-2 µM, time 4.0 day. It is filed as functional, cell-based.
Data set [26] deals with Bromodomain-containing protein 4 (Homo sapiens, UniProt O60885). Put plainly: Inhibition of BRD4-BD1/2 (unknown origin).
The subject of data set [27] is Mus musculus. Nature of the data set: Inhibition of PARP1 expression in nude mouse xenografted with human […] cells at 30 mg/kg, ip administered for 28 days by DAPI staining based laser confocal microscopic analysis. The note with it: time 28.0 day. Format: functional, organism-based.
Data set [28] has as its system Mus musculus. Nature of the data set: Inhibition of homologous recombinant repair in nude mouse xenografted with human SW1990 cells assessed as reversal of olaparib-induced ALDH1A1 expression at 30 mg/kg, ip after 4 days by Western blot analysis. Format: functional, organism-based. As to conditions: time 4.0 day.
Data set [29] relates to SW1990. Put plainly: Effect on CDC25B gene expression in human SW1990 cells at 1 to 2 uM by Q-PCR analysis. Format: functional, cell-based. As to conditions: dose 1-2 µM.
Data set [30] has as its system SW1990. Nature of the data set: Induction of DNA damage in human SW1990 cells assessed as increase in gammaH2AX expression at 1 to 2 uM incubated for 4 days by DAPI staining based laser confocal microscopic analysis. It is filed as functional, cell-based. As to conditions: dose 1-2 µM, time 4.0 day.
Data set [31] concerns SW1990. Nature of the data set: Upregulation of CCNB1 expression in human SW1990 cells at 6 uM measured after 4 days by Western blot analysis. Format: functional, cell-based. The note with it: time 4.0 day.
Data set [32] concerns SW1990. Nature of the data set: Upregulation of BRD4 expression in human SW1990 cells at 6 uM measured after 4 days by Western blot analysis. It is filed as functional, cell-based. The note with it: time 4.0 day.
The test system of data set [33] is SW1990. Nature of the data set: Downregulation of Ki67 expression in human SW1990 cells at 45 mg/kg, ip measured after 28 days by immuno histochemical staining based fluorescence microscopic analysis. It is filed as functional, organism-based. As to conditions: time 28.0 day.
In data set [34] the test system is SW1990. Put plainly: Effect on Rad51 gene expression in human SW1990 cells at 6 uM by Q-PCR analysis. It is filed as functional, cell-based.
Data set [35] relates to SW1990. Put plainly: Effect on BRCA1 gene expression in human SW1990 cells at 6 uM by Q-PCR analysis. It is filed as functional, cell-based.
Data set [36] deals with SW1990. Nature of the data set: Effect on MDC1 gene expression in human SW1990 cells at 6 uM by Q-PCR analysis. Format: functional, cell-based.
Data set [37] has as its system SW1990. Nature of the data set: Upregulation of CDK1 expression in human SW1990 cells at 6 uM measured after 4 days by Western blot analysis. It is filed as functional, cell-based. As to conditions: time 4.0 day.
Data set [38] relates to Mus musculus. Put plainly: Upregulation of CCND1 expression in nude mouse xenografted with human SW1990 cells at 45 mg/kg, ip measured after 4 days by Western blot analysis. As to conditions: time 4.0 day. It is filed as functional, organism-based.
The test system of data set [39] is SW1990. Put plainly: Effect on FOXM1 gene expression in human SW1990 cells at 6 uM by Q-PCR analysis. Format: functional, cell-based.

In the case of `Cc1sc2c(c1C)C(c1ccc(Cl)cc1)=N[C@@H](CC(=O)OC(C)(C)C)c1nnc(C)n1-2`, the outcome in data set [1], in [5], in data set [6], in data set [10], in [11] and in [12] was Active. Besides, the inhibition result in [2] was “Active”. Also, the Activity is 71.53% in data set [3]; “Non-Toxic” in [4]; 5.51% in data set [7]; 19.43% in data set [8]; “Non-Toxic” in data set [9].

Take `Cc1noc(C)c1-c1ccc2c(c1)C(c1ccccc1)N(Cc1nc3c(C(N)=O)cccc3[nH]1)C(=O)N2C` (centres undefined): the Activity in [13] is recorded as 9%; in data set [14], “Non-Toxic”; in data set [21], “Non-Toxic”; in [22], “Non-Toxic”. Moreover, the result in [15], in data set [23], in data set [29] and in [30] was Active. In addition, the inhibition entry in data set [16], in [17], in data set [18], in data set [19], in data set [25] and in data set [27] was “Active” throughout. For the same compound, the inhibition entry in [28] was “Active”. In addition, the figures for the IC50 in data set [20], in [24] and in [26] were 0.14 µM, 1.34 µM and 0.202 µM, respectively.

On to `O=C(c1cc(Cc2n[nH]c(=O)c3ccccc23)ccc1F)N1CCN(C(=O)C2CC2)CC1` [OLAPARIB], for which the outcome in [31], in [32], in data set [33], in data set [34], in data set [35] and in data set [36] was Active. Besides, the outcome in data set [37], in [38] and in [39] was Active.

Broadly, the IC50 is the point on the concentration scale where inhibition reaches its midpoint.
